Where a name gives a salt, the structure may show the parent alone.
Assays:
[1] = system: mouse HSP-70 gene promoter in mouse fibroblast L929 cells; test: HSP-70 promoter-luciferase reporter gene assay; format: cell-based; details: Control = 100; 10 μl of 10^-2 M solution to 1 ml culture, 30 min, 1 hour regeneration
From the text: The activity of HSP-70 was studied by reporter gene assay forming a DNA hybrid. To the promoter sequence of HSP-70 encoding the heat shock protein was fused a gene of a protein that can be detected by a well-measurable enzyme activity. Biotechnological processes were used. As reporter gene luciferase enzyme was employed, the activity of which can be well determined by luminescence measurement. If the promoter of the gene of the luciferase enzyme is substituted by the promoter of the HSP-70 gene, then the change in the activity of the luciferase enzyme i.e. the change of the frequency of the transcription from the gene correlates with the frequency of the transcription of the HSP-70 gene that proceeds in the given circumstances. In this way, if a substance or process influences the expression of the HJSP-70 gene, the effect can be studied through the measurement of the luciferase enzyme activity. The effect of the substances to be tested on the HSP-70 expression was studied in such an experimental system.
A double-stranded DNA circular molecule i.e. a plasmid containing the HSP-70 reporter gene was constructed to perform the measurements. An almost 600 bp long sequence of the mouse HSP-70 gene promoter (5′ direction from the start site of the gene) was fused to the coding sequence of the luciferase gene originated from Photymus pyralis. The applied promoter sequence contained several protein binding sites facilitating the expression of the HSP-70 gene. The HSP promoter-luciferase heterologous gene construct was built in a pBR based plasmid vector that can be selected for neomycin. This HSP-70-luciferase plasmid was transfected into mouse fibroblast L929 cells. The assay was performed as follows.
The HSP-70-luc plasmid containing L929 cells are grown in DMEM (Dulbecco's Modified Eagle's Medium) medium supplemented with 5% FCS (Fetal Calf Serum). 10^4 cells are plated in the wells of a 24-well Costar cell culture plate in 1 ml of culture medium. Test substances are dissolved in PBS (Phosphate Buffered Saline) in 10^−2 M concentration. After attachment of the cells (3-4 hours after plating) 10 μl of the solution are given to the cultures and cells are incubated for 30 min. at 37° C. in a CO2 thermostat. Culture medium is then changed for fresh one (without test substance) and cells are allowed to regenerate for 1 hour at 37° C., then once washed with PBS. After removal of PBS 40 μl of 1× lysis buffer are added to the cells, and the samples are kept on ice for 30 minutes. Then the samples are transferred into Eppendorf vials and centrifuged at 14000 rpm for 20 min at 4° C. 5 μl of the supernatant is added to 25 μl of luciferase assay buffer and the luminescence of the samples is measured for 25 seconds in a luminometer.

[2] = molecular target: Moloney murine leukemia virus reverse transcriptase (Moloney murine leukemia virus, UniProt P03355); test: Reverse transcriptase inhibition, (3H)dTTP incorporation; format: biochemical; details: for inhibition at 2 µg/mL: concentration 2 μg/ml
Experimental: The compounds may be sorted into group of the non-nucleoside type reverse transcriptase inhibitors. Tests were performed on Moloney murine leukemia virus reverse transcriptase that is considered as a good model of the HIV reverse transcriptase enzyme. The experimental assembly was the following.
The assay measures the incorporation of (3H)dTTP into cDNA using poly(dA) template and oligo(dT)12-18 primer. The reaction was carried out in 20 μl volume.
The reaction was started by addition of 5U reverse transcriptase
The reaction mixture was incubated for 40 min at 37° C. Then 15 μl of the reaction mixture was loaded on Whatman DE81 filter discs and filters were washed sequentially with 5% disodium hidrogen phosphate buffer, with water and with 96% (v/v) ethanol. After drying, the filters were placed into scintillation cocktail (OptiPhase, HiSafe, Wallac) and the radioactivity was measured in a Packard Tri-Carb 2200 scintillation counter.
Two compounds with known inhibitory activity were used in the experiments as positive control. AZT is a nucleoside analog while the compound Nevirapin is a non-nucleoside type inhibitor. Nevirapine binds to the so called benzodiazepine binding site of the enzyme. The applied concentrations of the test compounds were in the 0.2-2 μg/ml concentration range.

[3] = molecular target: T1, poly-ADP-ribose polymerase from rat liver (Rattus norvegicus, UniProt P27008); test: In vitro PARP inhibition on isolated enzyme; format: biochemical; details: for IC50: isolated rat liver enzyme, ± SEM from four parallel measurements, read-out: PARP I0.5 mg/l (converted)
T1 construct: We have isolated the poly-ADP-ribose polymerase from rat liver; from tissue; host or cells: rat liver
Experimental: We have isolated the poly-ADP-ribose polymerase from rat liver according to the article Shah.G. M.,Anal Biochem, 227, 1-13 (1995).
We have determined the PARP activation in 130 μl of reaction mixture, which consists of: 100 mM Tris-HCl puffer, pH 8.0, 10 mM MgCl2, 10% glycerol, 1.5 mM DTT, 100 μg of (32P), or (3H), NAD+, 10 μg of histone. We have stopped the reaction after 10 minutes with 8% perchloric acid and seperated the protein through centrifugation (10 minutes, 10.000×g). We have washed the precipitate with 8% perchloric acid, and we measured the radioactivity connected to the protein with scintillation counter.

male SPRD rats = test: Reperfusion induced arrhythmia after LAD occlusion, survival rate; format: in vivo, rat; details: for responders at 5 mg/kg: Rattus norvegicus, iv, control 15.38, read-out: % SURV; for effect on survival of reperfusion arrhythmia, in words: compared with Example 2 (100% survival)
Experimental: Experiments were carried out in male SPRD rats (acceptable body weight range: 300-350 g). The animals were anesthetized with sodium pentobarbital (Nembutal®: 60 mg/kg intraperitoneally) and remained breathing spontaneously. The animals were ventilated with respirator (MTA Kutesz) by using trachea cannule which was inserted after tracheotomy. The standard lead of the ECG II is monitored. Right femoral artery was catheterized and connected to a pressure transducer (BPR-01, Experimetria, Hungary), a preamplifier and pulsotachometer (HG-M, Experimetria, Hungary) for arterial blood pressure and heart rate measurement, respectively. The external jugular vein was cannulated for drug administration. After thoracotomy a silk (braided, coated 4-0) was placed under the left anterior coronary (LAD) artery. After a few minutes' stabilization period, a 5 min occlusion of LAD artery was applied, followed by a 10 min reperfusion period. The survival rate was evaluated.

HepG2 cells = test: LDH enzyme activity in hypoxia exposed HepG2 cells; format: cell-based; details: Homo sapiens, 30 μg/ml, hypoxia 1% O2 24 hours, Hypoxic control = 100, read-out: Relative LDH content, %
Experimental: HepG2 cell were cultured in DMEM medium supplemented with 10% FCS in 5% CO2 containing air at 37° C. 10^5 cells were plated in the wells of Costar 24-well culture plates in 1 ml medium. On the following day, cells were treated with the test compounds in a concentration of 30 μg/ml, then cells were exposed to hypoxia treatment (1% O2, 5% CO2 in nitrogen gas) for 24 hours. A part of the control cultures were treated with water used as the solvent, and another part of them was not exposed to hypoxia. At the end of the hypoxic treatment, medium was removed and cells were washed twice with cold PBS. Cells lysates were prepared in 0.05% Triton X-100 containing phosphate buffer (0.05 M) and after centrifugation (2 min. […]) the LDH activity of the supernatant was determined on the basis of NADH consumption in the presence of sodium piruvate substrate.
The LDH activity of the cells treated with the test compounds and compared to the activity of the control exposed to hypoxia is shown in Table 6.

T1 sequence (P27008 whole entry): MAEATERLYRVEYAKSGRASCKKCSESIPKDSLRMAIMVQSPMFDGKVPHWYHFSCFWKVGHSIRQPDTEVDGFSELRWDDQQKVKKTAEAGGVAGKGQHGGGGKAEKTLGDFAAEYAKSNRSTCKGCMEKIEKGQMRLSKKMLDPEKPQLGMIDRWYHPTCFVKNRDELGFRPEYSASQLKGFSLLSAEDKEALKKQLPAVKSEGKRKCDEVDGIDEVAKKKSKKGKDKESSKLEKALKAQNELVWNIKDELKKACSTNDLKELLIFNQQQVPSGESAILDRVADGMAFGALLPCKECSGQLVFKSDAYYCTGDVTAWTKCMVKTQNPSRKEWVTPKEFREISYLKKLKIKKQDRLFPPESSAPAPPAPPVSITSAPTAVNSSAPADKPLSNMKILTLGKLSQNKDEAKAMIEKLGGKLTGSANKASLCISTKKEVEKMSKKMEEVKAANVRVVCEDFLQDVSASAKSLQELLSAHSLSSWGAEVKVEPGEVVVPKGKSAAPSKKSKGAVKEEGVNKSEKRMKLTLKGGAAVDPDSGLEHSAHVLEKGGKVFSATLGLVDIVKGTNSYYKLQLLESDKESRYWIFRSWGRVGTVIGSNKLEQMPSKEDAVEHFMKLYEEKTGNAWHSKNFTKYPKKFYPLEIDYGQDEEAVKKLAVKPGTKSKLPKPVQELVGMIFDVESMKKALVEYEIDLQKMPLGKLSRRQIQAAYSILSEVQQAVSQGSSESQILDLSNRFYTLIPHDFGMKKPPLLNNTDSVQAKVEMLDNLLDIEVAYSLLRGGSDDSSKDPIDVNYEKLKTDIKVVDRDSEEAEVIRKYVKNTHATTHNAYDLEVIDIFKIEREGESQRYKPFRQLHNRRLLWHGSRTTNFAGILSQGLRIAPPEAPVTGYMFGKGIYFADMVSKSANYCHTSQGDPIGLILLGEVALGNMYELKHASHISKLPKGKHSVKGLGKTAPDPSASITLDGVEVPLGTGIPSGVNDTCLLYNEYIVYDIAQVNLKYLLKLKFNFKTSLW

Compound	IC50 [3]	responders at 5 mg/kg (male SPRD rats)	activity at 30 µg/mL (HepG2 cells)	further results
NC(C=Cc1cccnc1)=NOCC(O)CN1CCCCC1 (stereo not drawn) [Example 5, O-(3-Piperidino-2-hydroxy-propyl)-3-(3-Pyridyl)acrylic Acid Amidoxime Dihydrochloride]	58.1 µM	50%		Activity (HSP-70 promoter luciferase) [1]: 199; inhibition at 1 µg/mL ([2]; concentration 1.0 μg/ml, read-out: Enzyme inhibition, %): 52%; inhibition at 2 µg/mL ([2]; read-out: Enzyme inhibition, %): 57%; reverse transcriptase inhibiting effect compared with Nevirapin and AZT, in words ([2]; dose dependent, lower than AZT): higher than that of Nevirapin
CC(C)(C)NCC(O)CON=C(N)C=Cc1ccccc1 (stereo not drawn) [Example 6, O-(3-t.Buthylamino-2-hydroxy-propyl)-cinnamic Acid Amidoxime]	27.5 µM			Activity (HSP-70 promoter luciferase) [1]: 302
NC(C=Cc1ccccc1)=NOCC(O)CN1CCOCC1 (stereo not drawn) [Example 7, O-(3-Morpholino-2-hydroxy-propyl)-cinnamic Acid Amidoxime]	22.9 µM	42%	141%	
COc1ccc(C=CC(N)=NOCC(O)CNC(C)(C)C)cc1OC (stereo not drawn) [Example 8, O-(3-t.Butylamino-2-hydroxy-propyl)-3,4-dimethoxycinnamic Acid Amidoxime Dihydrochloride]	28.5 µM	37.5%	116%	
COc1ccc(C=CC(N)=NOCC(O)CN2CCOCC2)cc1OC (stereo not drawn) [Example 9, O-(3-Morpholino-2-hydroxy-propyl-3,4-dimethoxycinnamic Acid Amidoxime Hydrochloride]	35.6 µM			
NC(C=Cc1cccnc1)=NOCC(O)CN1CCOCC1 (stereo not drawn) [Example 10, O-(3-Morpholino-2-hydroxy-propyl)-3-(3-pyridyl)-acrylic Acid Amidoxime Hydrochloride]	55.5 µM			
NC(C=Cc1ccccc1)=NOCC(O)CN1CCc2ccccc2C1 (stereo not drawn) [Example 11, O-[3-(1,2,3,4-Tetrahydro-2-isoquinolyl)-2-hydroxy-propyl)]cinnamic Acid Amidoxime Dihydrochloride]	51.2 µM	20%	124%	
COc1ccc(C=CC(N)=NOCC(O)CN2CCc3ccccc3C2)cc1OC (stereo not drawn) [Example 12, O-[3-(1,2,3,4-Tetrahydro-2-isoquinolyl)-2-hydroxy-propyl]-3,4-dimethoxy-cinnamic Acid Amidoxime Dihydrochloride]	19.4 µM			
NC(C=Cc1cccnc1)=NOCC(O)CN1CCc2ccccc2C1 (stereo not drawn) [Example 13, O-(3-(1,2,3,4-Tetrahydro-2-isoquinolyl)-2-hydroxy-propyl)-3-(3-pyridyl) Acrylic Acid Amidoxime Dihydrochloride]	34 µM			Activity (HSP-70 promoter luciferase) [1]: 156
CC(C)(C)NCC(O)CON=C(N)C=Cc1cccnc1 (stereo not drawn) [Example 14, O-(3-t.Buthylamino-2-hydroxy-propyl)-3-(3-pyridyl)acrylic Acid Amidoxime Dihydrochloride]	44.5 µM	43%		
NC(C=Cc1ccccc1)=NOCC(O)CN1CCCC1 (stereo not drawn) [Example 15, O-3-Pyrrolidino-2-hydroxy-propyl) Cinnamic Acid Amidoxime dihydrochloride]	65.7 µM			Activity (HSP-70 promoter luciferase) [1]: 115
COc1ccc(C=CC(N)=NOCC(O)CN2CCCC2)cc1OC (stereo not drawn) [Example 16, O-(3-Pyrrolidino-2-hydroxy-propyl)-3,4-dimethoxycinnamic Acid Amidoxime Dihydrochloride]	51.5 µM		120%	
NC(C=Cc1cccnc1)=NOCC(O)CN1CCCC1 (stereo not drawn) [Example 17, O-(3-Pyrrolidino-2-hydroxy-propyl)-3-(3-pyridyl)acrylic Acid Amidoxime Hydrochloride]	51.7 µM		118%	
COc1ccc(C=CC(N)=NOCC(O)CN2CCCCC2)cc1OC (stereo not drawn) [Example 18, O-(3-Piperidino-2-hydroxy-propyl)-3,4-dimethoxycinnamic Acid Amidoxime]	93.8 µM	67%		effect on survival of reperfusion arrhythmia, in words (male SPRD rats): similarly outstanding effect
NC(C=C1CCCCC1)=NOCC(O)CN1CCCCC1 (stereo not drawn) [Example 19, O-(3-Piperidino-2-hydroxy-propyl)cyclohexyldene Acetamidoxime]	609 µM			PARP inhibitor classification in words ([3]; conclusion on Table 1): very poor PARP inhibitor
OC(CON=C(Cl)C=Cc1ccccc1)CN1CCCC1 (stereo not drawn) [Example 26, N-(3-Pyrrolidino-2-hydroxy-propoxy)-3-phenyl Acrylimidoyl Chloride]			112%	
CC(C)(C)NCC(O)CON=C(Cl)C=Cc1cccnc1 (stereo not drawn) [Example 31, N-(3-t.Butylamino-2-hydroxy-propoxy)-3-(3 pyridyl)acrylimidoyl Chloride Hydrogen Maleate]	19.2 µM			
ClC(C=Cc1cccnc1)=NOCCCN1CCCCC1.O=C(O)/C=C\C(=O)O [Example 32, N-(3-Piperidino-propoxy)-3-(3-pyridyl)acrylimidoyl Chloride Hydrogen Maleate]		71.4%		effect on survival of reperfusion arrhythmia, in words (male SPRD rats): similarly outstanding effect
OC(CON=C(Cl)C=Cc1cccnc1)CN1CCOCC1 (stereo not drawn) [Example 33, N-(3-Morpholino-2-hydroxy-propoxy)-3-(3-pyridyl)acrylimidoyl Chloride Hydrogen Maleate]	15.8 µM			
Cc1ccnc2c1NC(=O)c1cccnc1N2C1CC1 [Nevirapin, reference compound]				inhibition at 0.2 µg/mL ([2]; concentration 0.2 μg/ml, read-out: Enzyme inhibition, %): 21%; inhibition at 2 µg/mL ([2]; read-out: Enzyme inhibition, %): 26%
